How the values were obtained:
pERK in NCI-H358 cells = assay: Cell-based pERK HTRF assay; settings: Homo sapiens, 0.5 h, 30 min incubation
Method: pERK HTRF assays (Perkin Elmer) were used to determine the effectiveness of compounds of the present disclosure in disrupting KRAS G12C protein/effector signaling in cells.
On Day 1, cells (NCI-H358) were seeded into 96-well plates at 4×10^4 cells/well in complete growth media (RPMI, 10% FBS).
On Day 2, cells were treated with compounds at 0.25% DMSO. The source plate was created with compounds diluted in media at 5-fold the final assay concentration. The compounds were run in a 9-point concentration curve starting at 75 μM, with a 3-fold dilution between concentrations. 20 μL was transferred onto the cell plates (final volume in wells was 100 μL). Plates were harvested after 30 min incubation by aspirating media and adding kit-supplied 1× supplemented lysis buffer to all wells (75 μL per well). Plates were then placed on a plate shaker and incubated at 850 rpm for an additional 30 min.
Antibody mixture solution was prepared by diluting aliquoted d2 and Eu Cryptate antibodies 1:20 in kit supplied detection buffer, then mixed the diluted antibodies solutions (1:1 v:v). 4 μL of this solution was then added to a 384-well detection plate (Perkin Elmer; 6008230).
Samples were homogenized by pipetting up and down and then transferred (16 μL of cell lysates) from the 96-well cell culture plate to two wells of the HTRF 384-well detection plate containing the antibody solution. Plates were centrifuged (524 g for 1 min) and allowed to incubate between 4 and 24 h at room temperature. Maximum signal is reached after 4 h incubation time and remains stable over a period of 24 hours. Therefore, readings can be made between 4 and 24 h of incubation. Plates were centrifuged again (524 g for 1 min) and analyzed on the EnVision plate reader using the following settings: Excitation 320 nm, Bandwidth 75 nm; Emission 615 nm, Bandwidth 85 nm; Gain 100%; Flashes 100; Lag 60 μs.

[1] = biological target: T1, GppNHp-loaded KRAS4b (amino acids 1-169) G12C/C118S (Homo sapiens, UniProt P01116, C118S/G12C); assay: MALDI-TOF MS covalent Cys12 modification, GppNHp-loaded KRAS G12C; assay type: binding; settings: 15 minutes reaction time, 1 μM protein, 1:2.5 protein to compound ratio
T1 construct: KRAS4b (amino acids 1-169) G12C/C118S protein; made in house
Method: (§1) MALDI-TOF MS analysis was performed using 1 μM protein target, and 1:2.5 protein to compound ratio was used.
(§2) Reaction: 1 μM of GppNHp, GTP, or GDP-loaded KRAS4b (amino acids 1-169) G12C/C118S protein (produced in-house by Protein Expression Laboratory, FNLCR/Leidos Biomed) in 20 mM 4-(2-hydroxyethyl)-1-piperazineethanesulfonic acid (HEPES) buffer containing 150 mM NaCl, 1 mM MgCl2, pH 7.3 was prepared freshly before assay. Ten-μL aliquots of protein were dispensed onto low volume 384-well plate, then 375 nL DMSO, and 25 nL of tested compounds from 5 mM DMSO stocks were added to appropriate wells using ECHO 555 acoustic liquid handler (Labcyte Inc.). For each reaction/assay, three blanks were prepared by mixing 10 μL of protein solution with 400 nL DMSO. The contents of the wells were carefully mixed by aspiration, and then each plate was sealed with an adhesive cover, centrifuged at 2000 g for 1 minute, and kept in the dark at room temperature until 5 min, 15 min, 30 min, 2 h, or 6 h collections.
(§3) Target pretreatment: Before each assay MALDI target (Bruker MPT 384 ground steel BC) was pre-treated by pipetting on each spot 0.75 μL of saturated sinapinic acid in acetonitrile (ACN).
(§4) Sample preparation: At collection time point, 2 μL of reaction mixtures were pipetted out into 20 μL MALDI matrix solution (saturated solution of sinapinic acid in 1:1 ACN:water solution containing 0.75% trifluoroacetic acid (TFA)) deposited on 384 well polypropylene plate. Resulting solution was mixed by aspiration, centrifuged at 2000 g for 1 minute, then 1 μL aliquots were dispensed on pre-treated MALDI target using Beckman Coulter Biomek FX^P 96/384-Span-8 Laboratory Automation Workstation. Finally, the MALDI target was dried under mild vacuum to produce spots with fine crystalline structure.
(§5) Measurements: MALDI-TOF measurements were performed on a Bruker Daltonics rapifleX Tissuetyper TOF-TOF mass spectrometer using linear mode and mass range from 18.6 to 21.6 kDa. Detector gain was set to 3.3× (483 V), sample rate to 5 GS/s, real time smoothing to medium (175 MHz), laser smart beam pattern was set to: “MS Thin Layer M5”, and the laser frequency was 10000 Hz. Spectra were automatically collected using custom AutoXecute method. Laser power was auto adjusted using fuzzy control. The peak selection range was set to be between 19000 and 21500 Da. Peak evaluation uses half width parameter set to be smaller than 40 Da for processed spectrograms (centroid peak detection: smoothed by SavitzkyGolay algorithm using 7 m/z width and 2 cycles; baseline was subtracted using median algorithm with flatness 1 and median level 0.01). Fuzzy control used Proteins/Oligonucleotides protocol with minimum half width 1/10 times above threshold. Up to 40000 satisfactory shots were collected in 10000 shot steps. Dynamic termination was implemented to finish data collection when peak signal/noise ratio reached a value of 50.
(§6) Spectra processing: Spectra were smoothed by SavitzkyGolay algorithm using 7 m/z width and three cycles. Centroid peak detection algorithm was used with signal to noise threshold set to 6, relative intensity threshold 4%, peak width 10 m/z and median baseline subtraction using flatness of 1 and median level of 0.01. Peak intensity and area under the peak were evaluated and recorded for all peaks between 19,300 Da and 21,550 Da.
(§7) Calculation of percent modification: Percent modification was calculated as a ratio of peak height for protein modified by compound to sum of peak height of remaining protein plus peak height for protein modified by compound. If multiple modifications were observed each was calculated as a ratio of peak height for given modification versus sum of peak heights for all observed protein species. Data reported in Table 5 are from the 15 minutes reaction time point.

[2] = biological target: T2, Avi-KRAS G12C (1-169) GppNHp/RAF1 RBD-3×FLAG (52-151) (Homo sapiens, UniProt P01116, G12C); assay: KRAS G12C-effector (RAF1 RBD) protein:protein interaction HTRF disruption assay; assay type: biochemical; settings: PPI HTRF
T2 construct: Avi-KRAS G12C (1-169) GppNHp
Method: A protein:protein interaction (PPI) Homogeneous Time Resolved Fluorescence (HTRF) assay was used to determine the effectiveness of compounds of the present disclosure in disrupting KRAS G12C protein and effector (RAF1) binding.
The HTRF assay used the following reagents and proteins: 50 nM Avi-KRAS G12C (1-169) GppNHp/RAF1 RBD-3×FLAG (52-151); 75 nM Avi-RAF1 RBD-3×FLAG; Assay Buffer: 50 mM Tris pH 7.5, 100 mM NaCl, 5 mM MgCl2, 0.1% BSA, 0.01% Tween 20, 10% DMSO; Bead Buffer: 50 mM Tris pH 7.5, 0.01% Tween 20; Assay volume: 20 μL (384 well plate-low volume format); and Compound titration: 30-0.02 μM, 3× dilution series.
The HTRF assay employed the following protocol:
Compounds were dispensed in assay plate (384-well, Grenier Bione #784075) using Echo (model 555) with dose response settings: 200 nL final volume, titration from 100 μM as a 10-point dilution series. KRAS proteins were prepared in assay buffer, and dispensed on plates, 5 μL per well, then incubated for 1 h at room temperature, with 700 rpm shaking. RAF1 RBD were prepared in assay buffer, dispensed onto plates, 5 μL per well, and then incubated for 1 h at room temperature, with 700 rpm shaking. Reagent mix was then prepared and dispensed on plates, 10 μL per well, and then incubated for 1 h at room temperature, with 700 rpm shaking.
Plates were analyzed on an Envision plate reader using the following setting: Excitation 320 nm, Bandwidth 75 nm, Emission 615 nm, Bandwidth 85 nm; Gain 100%; Flashes 100; Lag 60 μs. Data was reported as percentage of activity, with DMSO as 100%. Data was plotted and analyzed using Prism 8.

[3] = biological target: T3, GDP-loaded KRAS4b (amino acids 1-169) G12C/C118S (Homo sapiens, UniProt P01116, C118S/G12C); assay: MALDI-TOF MS covalent Cys12 modification, GDP-loaded KRAS G12C; assay type: binding; settings: 15 minutes reaction time, 1 μM protein, 1:2.5 protein to compound ratio
T3 construct: KRAS4b (amino acids 1-169) G12C/C118S protein; made in house
Method: as §1, §2, §3, §4, §5, §6, §7

[4] = biological target: T4, GTP-loaded KRAS4b (amino acids 1-169) G12C/C118S (Homo sapiens, UniProt P01116, C118S/G12C); assay: MALDI-TOF MS covalent Cys12 modification, GTP-loaded KRAS G12C; assay type: binding; settings: 15 minutes reaction time, 1 μM protein, 1:2.5 protein to compound ratio
T4 construct: KRAS4b (amino acids 1-169) G12C/C118S protein; made in house
Method: as §1, §2, §3, §4, §5, §6, §7

SMILES	IC50 (pERK in NCI-H358 cells) [nM]	GppNHp-KRAS G12C percent of modification [1]	IC50 [2] [nM]	GDP-KRAS G12C percent of modification [3]	GTP-KRAS G12C percent of modification [4]
C=CC(=O)N1CC[C@@H](N(C)c2nc(OC[C@@]34CCCN3C[C@H](F)C4)nc3c(F)c(-c4ccc(F)c5sc(N)nc45)ncc23)C1 [Compound 4]	> 1000	A (percent of modification ≥70%)	≤ 500	A (percent of modification ≥70%)	–
C=CC(=O)N1CCC(N(C)c2nc(OC[C@@H]3CC4(CC4)CN3C)nc3c(F)c(-c4ccc(F)c5sc(N)c(C#N)c45)ncc23)[C@H]1COC (stereo partly drawn) [Compound 21]	100 to 1000	A (percent of modification ≥70%)	–	A (percent of modification ≥70%)	A (percent of modification ≥70%)
C=CC(=O)N1CC[C@@H](N(C)c2nc(OC[C@@H]3CC4(CC4)CN3C)nc3c(F)c(-c4ccc(F)c5sc(N)c(C#N)c45)ncc23)[C@H]1COC [Compound 21]	–	–	≤ 500	–	–
C=CC(=O)N1CCC(N(C)c2nc(OC[C@@H]3CCCN3C)nc3c(F)c(-c4ccc(F)c5sc(N)c(C#N)c45)ncc23)[C@H]1C (stereo partly drawn) [Compound 22]	100 to 1000	A (percent of modification ≥70%)	–	A (percent of modification ≥70%)	A (percent of modification ≥70%)
C=CC(=O)N1CC[C@@H](N(C)c2nc(OC[C@@H]3CCCN3C)nc3c(F)c(-c4ccc(F)c5sc(N)c(C#N)c45)ncc23)[C@H]1C [Compound 22]	–	–	≤ 500	–	–
C=CC(=O)N1CCC(N(C)c2nc(OC[C@@H]3CC4(CC4)CN3C)nc3c(F)c(-c4ccc(F)c5sc(N)c(C#N)c45)ncc23)[C@H]1C (stereo partly drawn) [Compound 24]	100 to 1000	A (percent of modification ≥70%)	–	A (percent of modification ≥70%)	A (percent of modification ≥70%)
C=CC(=O)N1CC[C@@H](N(C)c2nc(OC[C@@H]3CC4(CC4)CN3C)nc3c(F)c(-c4ccc(F)c5sc(N)c(C#N)c45)ncc23)[C@H]1C [Compound 24]	–	–	≤ 500	–	–
C=CC(=O)N1CCC(N(C)c2nc(OC[C@@H]3CCCN3C)nc3c(F)c(-c4ccc(F)c5sc(N)c(C#N)c45)ncc23)[C@H]1COC (stereo partly drawn) [Compound 26]	100 to 1000	A (percent of modification ≥70%)	–	A (percent of modification ≥70%)	A (percent of modification ≥70%)
C=CC(=O)N1CC[C@@H](N(C)c2nc(OC[C@@H]3CCCN3C)nc3c(F)c(-c4ccc(F)c5sc(N)c(C#N)c45)ncc23)[C@H]1COC [Compound 26]	–	–	≤ 500	–	–
C=CC(=O)N1CCC(N(C)c2nc(OCCOC)nc3c(F)c(-c4ccc(F)c5sc(N)c(C#N)c45)ncc23)[C@H]1C (stereo partly drawn) [Compound 31]	> 1000	D (percent of modification <10%)	–	C (10%≤percent of modification <50%)	D (percent of modification <10%)
C=CC(=O)N1CC[C@@H](N(C)c2nc(OCCOC)nc3c(F)c(-c4ccc(F)c5sc(N)c(C#N)c45)ncc23)[C@H]1C [Compound 31]	–	–	500 to 5000	–	–
C=CC(=O)N1CCC(N(C)c2nc(OC)nc3c(F)c(-c4ccc(F)c5sc(N)c(C#N)c45)ncc23)[C@H]1C (stereo partly drawn) [Compound 32]	> 1000	D (percent of modification <10%)	–	C (10%≤percent of modification <50%)	D (percent of modification <10%)
C=CC(=O)N1CC[C@@H](N(C)c2nc(OC)nc3c(F)c(-c4ccc(F)c5sc(N)c(C#N)c45)ncc23)[C@H]1C [Compound 32]	–	–	5000 to 20000	–	–
C=CC(=O)N1CC[C@@H](N(C)c2nc(OCCO)nc3c(F)c(-c4ccc(F)c5sc(N)c(C#N)c45)ncc23)[C@H]1C [Compound 35]	–	–	5000 to 20000	–	–
C=CC(=O)N1CC[C@@H](N(C)c2ncnc3c(F)c(-c4ccc(F)c5sc(N)c(C#N)c45)ncc23)[C@H]1C [Compound 36]	–	–	5000 to 20000	–	–

From patent US20250270206A1, “COMPOSITIONS AND METHODS FOR INHIBITION OF RAS” (TheRas, Inc., priority 2022, published 2025)
